Reference: US20250115582A1, “MOLECULAR GLUE DEGRADERS AND METHODS OF USING THE SAME” (Monte Rosa Therapeutics, Inc., priority 2022, published 2025)

How the values were obtained:
CRBN/DDB1 = CRBN/DDB1 (Homo sapiens, UniProt Q96SW2); assay: HTRF binding assay (thalidomide probe displacement from CRBN/DDB1); conditions: CRBN/DDB1 2.5 nM, Cy5-Thalidomide 100 nM, 30 min; geometric mean; read-out: HTRF_Thali_Disp_DR—geo_IC50
Method in brief: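 Displacement of Cy5-thalidomide probe (100 nM) from CRBN/DDB1 (2.5 nM) with anti-His Tb cryptate in 20 mM HEPES, 20 mM NaCl, 0.2 mM TCEP, 0.2 mM EDTA, 0.005% Tween20; 10-point 1:3 series, 30 min ambient. HTRF 665/620 ratio; IC50 by 4-parameter fit, Ki via Cheng-Prusoff.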

CW2 = assay: GI50 growth inhibition, CyQUANT, CW2; format: cell-based; conditions: Homo sapiens, CW-2, CW2 cells, 120 to 168 hours
Protocol: (§1) SKCO1, LS180, and LS174T cell lines were purchased from ATCC. CW2 cell line was purchased from Riken. GP2D cell line was purchased from Sigma/ECACC. All cell lines were cultured in manufacturer's recommended media at 37° C., 5% CO2. Briefly, cells were suspended in 200 μL of media and seeded at 300 to 1,800 cells per well in tissue culture treated 96-well plates with black walls and clear bottom. Plates were incubated overnight and initial (T0) read was performed the following day using CyQUANT Direct Cell Proliferation Assay Kit (Thermo Fisher Scientific) according to manufacturer's protocol. All compounds were solubilized in DMSO and prepared at 3-fold serial dilution, using 9 points starting at 30 μM as highest concentration, administered to cells and incubated for 120 to 168 hours, at which point CyQUANT assay measurement was performed using Acumen Cellista instrument (Ex/Em 480/520 nm). Media-only wells were used as blank, and 0.3% DMSO was used as DMSO-treated cell control. Growth inhibition (percent response) was calculated using the following formula in Excel: “=if ([Compound treated Day N]>[Untreated Day 0, AVG], ([Compound treated Day N]−[Untreated Day 0, AVG])/([Untreated Day N]−[Untreated Day 0, AVG])*100, ([Compound Treated Day N]−[Untreated Day 0, AVG])/([Untreated Day 0, AVG])*100)”. GI50 is the response corresponding to the 50% of untreated control.
(§2) GI50 data are reported in Tables 4a, 4b, 4c, 4d, and 4e for compounds in Table 1. In Tables 4a, 4b, 4c, 4d, and 4e below, According to the code, A represents a GI50 value of ≤0.1 μM, B represents a GI50 value>0.1 μM and ≤1 μM, C represents an GI50 value>1 μM.

[1] = Mouse oral PK at 10 mg/kg; format: in vivo; conditions: male BALB/c mice, PO 10 mg/kg, plasma
Protocol: Male BALB/c mice were fasted overnight and administered a discrete, PO dose of Compound 154 or Compound 147 at 10 mg/kg.
Blood samples were collected serially from three animals/time-point following PO administration of the test compounds to the mice and placed in tubes containing K2EDTA. The blood samples were centrifuged, and the aliquots of the resulting plasma stored frozen at −60 to −90° C.
The plasma samples were analyzed by LC-MS/MS to determine concentrations of the test compounds. The in-life portion of the study and the bioanalysis of plasma samples was conducted at Wuxi (China).
The pharmacokinetic parameters for compound 154 or compound 147 were calculated by non-compartmental analysis using Phoenix WinNonlin software.

LS180 = assay: GI50 growth inhibition, CyQUANT, LS180; format: cell-based; conditions: Homo sapiens, LS180 cells, 120 to 168 hours
Protocol: as §1, §2

Chain of CRBN/DDB1 (Q96SW2 whole entry): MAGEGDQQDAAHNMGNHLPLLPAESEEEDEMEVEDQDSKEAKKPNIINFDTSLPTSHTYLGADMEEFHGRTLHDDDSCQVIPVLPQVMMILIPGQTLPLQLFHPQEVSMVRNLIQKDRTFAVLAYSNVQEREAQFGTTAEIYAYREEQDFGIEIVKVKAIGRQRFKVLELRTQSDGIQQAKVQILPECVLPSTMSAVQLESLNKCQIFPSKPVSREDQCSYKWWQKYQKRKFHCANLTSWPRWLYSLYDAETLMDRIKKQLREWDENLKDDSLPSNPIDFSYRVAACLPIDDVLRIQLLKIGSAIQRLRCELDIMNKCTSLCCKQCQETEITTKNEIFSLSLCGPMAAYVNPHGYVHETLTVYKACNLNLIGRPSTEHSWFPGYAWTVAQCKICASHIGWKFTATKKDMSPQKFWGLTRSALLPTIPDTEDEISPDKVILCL
Chain of CRBN/DDB1 (Q16531 whole entry partner): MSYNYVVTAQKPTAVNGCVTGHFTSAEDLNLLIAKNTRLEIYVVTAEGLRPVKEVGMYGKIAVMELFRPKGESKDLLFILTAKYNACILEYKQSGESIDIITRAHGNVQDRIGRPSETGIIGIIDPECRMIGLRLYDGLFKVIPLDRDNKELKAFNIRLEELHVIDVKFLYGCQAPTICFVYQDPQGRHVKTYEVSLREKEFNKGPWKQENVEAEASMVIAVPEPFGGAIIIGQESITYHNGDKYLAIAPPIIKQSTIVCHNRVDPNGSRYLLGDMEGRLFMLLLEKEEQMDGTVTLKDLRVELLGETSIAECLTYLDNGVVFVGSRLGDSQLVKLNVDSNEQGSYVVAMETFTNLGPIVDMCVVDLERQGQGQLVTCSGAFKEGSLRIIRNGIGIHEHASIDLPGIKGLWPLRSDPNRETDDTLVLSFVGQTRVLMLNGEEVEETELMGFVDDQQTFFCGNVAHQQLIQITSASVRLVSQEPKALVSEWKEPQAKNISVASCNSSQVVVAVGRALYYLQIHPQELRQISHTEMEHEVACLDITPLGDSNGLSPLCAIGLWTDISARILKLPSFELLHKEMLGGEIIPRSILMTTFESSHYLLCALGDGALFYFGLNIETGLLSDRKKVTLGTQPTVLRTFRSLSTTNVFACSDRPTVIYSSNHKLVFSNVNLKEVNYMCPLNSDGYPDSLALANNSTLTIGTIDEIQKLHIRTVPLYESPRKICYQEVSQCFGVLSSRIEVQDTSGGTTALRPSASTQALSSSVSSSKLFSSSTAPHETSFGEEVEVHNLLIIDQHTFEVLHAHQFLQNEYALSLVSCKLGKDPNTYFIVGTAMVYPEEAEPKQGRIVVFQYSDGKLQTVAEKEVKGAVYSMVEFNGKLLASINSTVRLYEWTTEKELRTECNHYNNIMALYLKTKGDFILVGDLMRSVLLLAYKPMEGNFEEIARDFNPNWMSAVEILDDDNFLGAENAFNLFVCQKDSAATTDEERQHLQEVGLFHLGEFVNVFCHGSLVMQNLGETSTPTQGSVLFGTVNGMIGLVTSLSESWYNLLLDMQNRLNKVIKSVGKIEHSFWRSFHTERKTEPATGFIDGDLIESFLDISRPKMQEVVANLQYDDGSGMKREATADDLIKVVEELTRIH

Structure (SMILES)	IC50 (CRBN/DDB1) [µM]	GI50 (CW2) [µM]	Tmax [1] [h]	AUC ([1]; Mean ± SD) [ng·h/mL]	AUC(0-t) ([1]; Mean ± SD) [ng·h/mL]	Cmax ([1]; Mean ± SD) [ng/mL]	GI50 (LS180) [µM]	half-life ([1]; Mean ± SD) [h]
O=C1CCC(N2Cc3cc(NC(=O)c4ccc(Cl)cc4)ccc3C2=O)C(=O)N1 (stereo not drawn) [Compound 147]	0.1 to 1	0.1 to 1	0.5	1210 ± 235	1170 ± 258	574 ± 76.8	> 1	
O=C1CCC(N2Cc3cc(NC(=O)c4ncn(-c5ccccc5)c4C(F)(F)F)ccc3C2=O)C(=O)N1 (stereo not drawn) [Compound 154, N-(2-(2,6-dioxopiperidin-3-yl)-1-oxoisoindolin-5-yl)-1-phenyl-5-(trifluoromethyl)-1H-imidazole-4-carboxamide]	0.1 to 1	< 0.1	1	50900 ± 10400	50900 ± 10300	12900 ± 2560	0.1 to 1	2.19 ± 0.24
